Measurements as given in PubChem BioAssay AID248 (DTP/NCI, 2004).
Several values for one entry are separate records, joined by “and”; a condition that tells them apart may be missing. Identical values can stand only once. Toxic doses and inconclusive results are not listed.

Tested on: L1210 leukemia ip in BDF1 mice, survival T/C
Test: NCI In Vivo Anticancer Drug Screen. Data for tumor model L1210 Leukemia (intraperitoneal) in B6D2F1 (BDF1) mice
Conditions: endpoint: mean survival time, higher = longer survival
Method in brief: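 Transplanted-tumor mice were given test agent; controls received vehicle only. Survival readings from the two groups were divided (treated over control).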

[1] = dose: 200.0 mg/kg/injection, schedule: Q04DX003 (ip), vehicle: saline
[2] = dose: 400.0 mg/kg/injection, schedule: Q04DX003 (ip), vehicle: saline
[3] = dose: 100.0 mg/kg/injection, schedule: Q01DX009 (ip), vehicle: Klucel (hydroxypropylcellulose) (HPC)
[4] = dose: 100.0 mg/kg/injection, schedule: Q04DX003 (ip), vehicle: saline
[5] = dose: 100.0 mg/kg/injection, schedule: Q04DX003 (ip), vehicle: saline with Tween-80
[6] = dose: 200.0 mg/kg/injection, schedule: Q04DX003 (ip), vehicle: saline with Tween-80
[7] = dose: 400.0 mg/kg/injection, schedule: Q04DX003 (ip), vehicle: saline with Tween-80
[8] = dose: 100.0 mg/kg/injection, schedule: Q01DX001 (ip), vehicle: carboxymethylcellulose (CMC)
[9] = dose: 200.0 mg/kg/injection, schedule: Q01DX001 (ip), vehicle: carboxymethylcellulose (CMC)
[10] = dose: 400.0 mg/kg/injection, schedule: Q01DX001 (ip), vehicle: carboxymethylcellulose (CMC)
[11] = dose: 50.0 mg/kg/injection, schedule: Q01DX009 (ip), vehicle: saline with Tween-80
[12] = dose: 100.0 mg/kg/injection, schedule: Q01DX009 (ip), vehicle: saline with Tween-80
[13] = dose: 200.0 mg/kg/injection, schedule: Q01DX009 (ip), vehicle: saline with Tween-80
[14] = dose: 100.0 mg/kg/injection, schedule: Q01DX001 (ip), vehicle: saline
[15] = dose: 200.0 mg/kg/injection, schedule: Q01DX001 (ip), vehicle: saline
[16] = dose: 400.0 mg/kg/injection, schedule: Q01DX001 (ip), vehicle: saline

In the case of `CS(=O)(=O)OCC(=O)NCCNC(=O)COS(C)(=O)=O`, the T/C (dose: 25.0 mg/kg/injection, schedule: Q01DX Z (ip), vehicle: saline) is reported as 109 % of control, the T/C (dose: 33.0 mg/kg/injection, schedule: Q01DX Z (ip), vehicle: carboxymethylcellulose (CMC)) is reported as 113 % of control and 120 % of control and the T/C (dose: 47.0 mg/kg/injection, schedule: Q01DX Z (ip), vehicle: carboxymethylcellulose (CMC)) is reported as 122 % of control. The T/C (dose: 50.0 mg/kg/injection, schedule: Q01DX015 (ip), vehicle: saline) was 108 % of control and 122 % of control, the T/C (dose: 50.0 mg/kg/injection, schedule: Q01DX Z (ip), vehicle: carboxymethylcellulose (CMC)) was 104 % of control and the T/C (dose: 50.0 mg/kg/injection, schedule: Q01DX Z (ip), vehicle: saline) was 109 % of control. For the same molecule, the T/C (dose: 50.0 mg/kg/injection, schedule: Q04DX003 (ip), vehicle: carboxymethylcellulose (CMC)) was 111 % of control, the T/C (dose: 66.0 mg/kg/injection, schedule: Q01DX Z (ip), vehicle: carboxymethylcellulose (CMC)) was 106 % of control and the T/C (dose: 75.0 mg/kg/injection, schedule: Q01DX Z (ip), vehicle: carboxymethylcellulose (CMC)) was 120 % of control. The T/C (dose: 100.0 mg/kg/injection, schedule: Q01DX015 (ip), vehicle: saline) was 114 % of control, the T/C (dose: 100.0 mg/kg/injection, schedule: Q01DX Z (ip), vehicle: saline) was 115 % of control and the T/C (dose: 100.0 mg/kg/injection, schedule: Q04DX003 (ip), vehicle: carboxymethylcellulose (CMC)) was 110 % of control. For the same molecule, the T/C (dose: 105.0 mg/kg/injection, schedule: Q01DX Z (ip), vehicle: carboxymethylcellulose (CMC)) was 154 % of control, the T/C (dose: 115.0 mg/kg/injection, schedule: Q01DX Z (ip), vehicle: carboxymethylcellulose (CMC)) was 120 % of control and the T/C (dose: 175.0 mg/kg/injection, schedule: Q01DX Z (ip), vehicle: carboxymethylcellulose (CMC)) was 118 % of control. For the same molecule, the T/C (dose: 180.0 mg/kg/injection, schedule: Q01DX009 (ip), vehicle: saline) was 168 % of control, the T/C (dose: 200.0 mg/kg/injection, schedule: Q04DX003 (ip), vehicle: carboxymethylcellulose (CMC)) was 119 % of control and the T/C [1] was 111 % of control. The T/C (dose: 225.0 mg/kg/injection, schedule: Q01DX Z (ip), vehicle: carboxymethylcellulose (CMC)) was 92 % of control, the T/C (dose: 256.0 mg/kg/injection, schedule: Q01DX009 (ip), vehicle: saline) was 161 % of control and 169 % of control and the T/C (dose: 400.0 mg/kg/injection, schedule: Q01DX015 (ip), vehicle: saline) was 162 % of control. The T/C (dose: 400.0 mg/kg/injection, schedule: Q01DX Z (ip), vehicle: carboxymethylcellulose (CMC)) was 102 % of control, the T/C (dose: 400.0 mg/kg/injection, schedule: Q01DX Z (ip), vehicle: saline) was 105 % of control and the T/C [2] was 116 % of control. The T/C (dose: 800.0 mg/kg/injection, schedule: Q04DX003 (ip), vehicle: saline) was 116 % of control.
With `COc1ccc([N+](=O)[O-])cc1NC(=S)NC(=O)c1cccc(Br)c1` the T/C [3] was 92 % of control, the T/C (dose: 200.0 mg/kg/injection, schedule: Q01DX009 (ip), vehicle: Klucel (hydroxypropylcellulose) (HPC)) was 92 % of control and the T/C (dose: 400.0 mg/kg/injection, schedule: Q01DX009 (ip), vehicle: Klucel (hydroxypropylcellulose) (HPC)) was 97 % of control.
`Cc1ccc(-c2ccccc2)cc1C(=O)O` was tested, and the T/C (dose: 100.0 mg/kg/injection, schedule: Q04DX002 (ip), vehicle: Klucel (hydroxypropylcellulose) (HPC)) was 94 % of control, the T/C (dose: 200.0 mg/kg/injection, schedule: Q04DX002 (ip), vehicle: Klucel (hydroxypropylcellulose) (HPC)) was 90 % of control and the T/C (dose: 400.0 mg/kg/injection, schedule: Q04DX002 (ip), vehicle: Klucel (hydroxypropylcellulose) (HPC)) was 101 % of control.
For `COc1ccc(C[Si](C)C)cc1`, the T/C [4] was 93 % of control, the T/C [1] was 98 % of control and the T/C [2] was 94 % of control.
In the case of `CC(=O)C(=Cc1c[nH]c2ccccc12)C(C)=O`, the T/C (dose: 50.0 mg/kg/injection, schedule: Q01DX009 (ip), vehicle: water) is reported as 98 % of control, the T/C (dose: 100.0 mg/kg/injection, schedule: Q01DX009 (ip), vehicle: water) is reported as 112 % of control and the T/C (dose: 100.0 mg/kg/injection, schedule: Q04DX003 (ip), vehicle: water) is reported as 106 % of control. The T/C (dose: 200.0 mg/kg/injection, schedule: Q01DX009 (ip), vehicle: water) was 98 % of control, the T/C (dose: 200.0 mg/kg/injection, schedule: Q04DX003 (ip), vehicle: water) was 103 % of control and the T/C (dose: 400.0 mg/kg/injection, schedule: Q01DX009 (ip), vehicle: water) was 95 % of control. The T/C (dose: 400.0 mg/kg/injection, schedule: Q04DX003 (ip), vehicle: water) was 104 % of control.
With `CC(=O)Nc1ccc2c(c1)C(=Nc1ccccc1)c1ccccc1-2` the T/C [5] was 91 % of control, the T/C [6] was 91 % of control and the T/C [7] was 91 % of control.
`c1ccc(N(c2ccccc2)[Si](c2ccccc2)(c2ccccc2)c2ccccc2)cc1` was tested, and the T/C (dose: 25.6 mg/kg/injection, schedule: Q04DX002 (ip), vehicle: saline with Tween-80) was 93 % of control, the T/C (dose: 64.0 mg/kg/injection, schedule: Q04DX002 (ip), vehicle: saline with Tween-80) was 93 % of control and the T/C (dose: 160.0 mg/kg/injection, schedule: Q04DX002 (ip), vehicle: saline with Tween-80) was 97 % of control. For the same molecule, the T/C (dose: 400.0 mg/kg/injection, schedule: Q04DX002 (ip), vehicle: saline with Tween-80) was 104 % of control.
In the case of `ClC(Cl)(Cl)SN1CCOCC1`, the T/C (dose: 50.0 mg/kg/injection, schedule: Q01DX009 (ip), vehicle: saline) is reported as 106 % of control, the T/C (dose: 100.0 mg/kg/injection, schedule: Q01DX009 (ip), vehicle: saline) is reported as 95 % of control and the T/C (dose: 200.0 mg/kg/injection, schedule: Q01DX009 (ip), vehicle: saline) is reported as 104 % of control.
With `CC(=O)Nc1cccc2c1Cc1cc([N+](=O)[O-])ccc1-2` the T/C (dose: 50.0 mg/kg/injection, schedule: Q04DX003 (ip), vehicle: Klucel (hydroxypropylcellulose) (HPC)) was 93 % of control, the T/C [8] was 92 % of control and the T/C (dose: 100.0 mg/kg/injection, schedule: Q04DX003 (ip), vehicle: Klucel (hydroxypropylcellulose) (HPC)) was 93 % of control. For the same molecule, the T/C [9] was 92 % of control, the T/C (dose: 200.0 mg/kg/injection, schedule: Q04DX003 (ip), vehicle: Klucel (hydroxypropylcellulose) (HPC)) was 94 % of control and the T/C [10] was 87 % of control.
With `S=C([S-])[P+](C1CCCCC1)(C1CCCCC1)C1CCCCC1` the T/C [11] was 97 % of control, the T/C [12] was 97 % of control and the T/C [5] was 97 % of control. For the same molecule, the T/C [13] was 97 % of control and the T/C [6] was 87 % of control.
`N=C(N)c1ncn(C2CC(O)C(CO)O2)c1N` (centres undefined) was tested, and the T/C [14] was 106 % of control and the T/C [15] was 103 % of control.
`c1ccc2[nH]c(-c3c[nH]c4ccccc34)cc2c1` was tested, and the T/C (dose: 50.0 mg/kg/injection, schedule: Q01DX001 (ip), vehicle: saline) was 106 % of control, the T/C [14] was 102 % of control and the T/C [15] was 106 % of control.
In the case of `Cc1cc(SC#N)ncn1`, the T/C (dose: 5.0 mg/kg/injection, schedule: Q01DX001 (ip), vehicle: saline) is reported as 98 % of control and the T/C (dose: 10.0 mg/kg/injection, schedule: Q01DX001 (ip), vehicle: saline) is reported as 101 % of control.
For `O=C(Nc1ccc(S(=O)(=O)F)cc1)c1cccc([N+](=O)[O-])c1`, the T/C [14] was 101 % of control, the T/C [15] was 100 % of control and the T/C [16] was 97 % of control.
With `COc1ccc(NC(=O)/C=C/C(=O)Nc2ccc(OC)cc2)cc1` the T/C [5] was 100 % of control, the T/C [6] was 112 % of control and the T/C [7] was 100 % of control.
For `CC(C)(C)NC(=O)Nc1cccc(OC(=O)NC(C)(C)C)c1`, the T/C [5] was 90 % of control, the T/C [6] was 87 % of control and the T/C [7] was 87 % of control.
In the case of `CC(C)C1CCC(N)CC1` (centres undefined), the T/C (dose: 75.0 mg/kg/injection, schedule: Q01DX001 (ip), vehicle: saline) is reported as 100 % of control.
With `COC1C(CO)OC(n2cnc3c(=O)[nH]c(N)nc32)C1O` (centres undefined) the T/C [8] was 98 % of control, the T/C [9] was 104 % of control and the T/C [10] was 114 % of control.
With `NNc1ccc2c(O)cc(S(=O)(=O)O)cc2c1` the T/C [14] was 98 % of control, the T/C [4] was 103 % of control and the T/C [15] was 104 % of control. For the same molecule, the T/C [1] was 95 % of control, the T/C [16] was 107 % of control and the T/C [2] was 101 % of control.
For `CC(=O)Nc1cccc(S(=O)(=O)F)c1`, the T/C [11] was 100 % of control, the T/C [12] was 105 % of control and the T/C [13] was 88 % of control.
With `COc1ccc(OC)c(NC(=O)Sc2ccccc2O)c1` the T/C (dose: 25.0 mg/kg/injection, schedule: Q01DX009 (ip), vehicle: Klucel (hydroxypropylcellulose) (HPC)) was 100 % of control, the T/C (dose: 50.0 mg/kg/injection, schedule: Q01DX009 (ip), vehicle: Klucel (hydroxypropylcellulose) (HPC)) was 96 % of control and the T/C [3] was 99 % of control and 89 % of control.
